Test results reported in ChEMBL document CHEMBL5729487, “Small molecule inhibition of transcription factor SALL4 and uses thereof” (2022).

Biological target: T1, Sal-like protein 4 (Homo sapiens, UniProt Q9UJQ4)
T1 sequence (Q9UJQ4 whole entry): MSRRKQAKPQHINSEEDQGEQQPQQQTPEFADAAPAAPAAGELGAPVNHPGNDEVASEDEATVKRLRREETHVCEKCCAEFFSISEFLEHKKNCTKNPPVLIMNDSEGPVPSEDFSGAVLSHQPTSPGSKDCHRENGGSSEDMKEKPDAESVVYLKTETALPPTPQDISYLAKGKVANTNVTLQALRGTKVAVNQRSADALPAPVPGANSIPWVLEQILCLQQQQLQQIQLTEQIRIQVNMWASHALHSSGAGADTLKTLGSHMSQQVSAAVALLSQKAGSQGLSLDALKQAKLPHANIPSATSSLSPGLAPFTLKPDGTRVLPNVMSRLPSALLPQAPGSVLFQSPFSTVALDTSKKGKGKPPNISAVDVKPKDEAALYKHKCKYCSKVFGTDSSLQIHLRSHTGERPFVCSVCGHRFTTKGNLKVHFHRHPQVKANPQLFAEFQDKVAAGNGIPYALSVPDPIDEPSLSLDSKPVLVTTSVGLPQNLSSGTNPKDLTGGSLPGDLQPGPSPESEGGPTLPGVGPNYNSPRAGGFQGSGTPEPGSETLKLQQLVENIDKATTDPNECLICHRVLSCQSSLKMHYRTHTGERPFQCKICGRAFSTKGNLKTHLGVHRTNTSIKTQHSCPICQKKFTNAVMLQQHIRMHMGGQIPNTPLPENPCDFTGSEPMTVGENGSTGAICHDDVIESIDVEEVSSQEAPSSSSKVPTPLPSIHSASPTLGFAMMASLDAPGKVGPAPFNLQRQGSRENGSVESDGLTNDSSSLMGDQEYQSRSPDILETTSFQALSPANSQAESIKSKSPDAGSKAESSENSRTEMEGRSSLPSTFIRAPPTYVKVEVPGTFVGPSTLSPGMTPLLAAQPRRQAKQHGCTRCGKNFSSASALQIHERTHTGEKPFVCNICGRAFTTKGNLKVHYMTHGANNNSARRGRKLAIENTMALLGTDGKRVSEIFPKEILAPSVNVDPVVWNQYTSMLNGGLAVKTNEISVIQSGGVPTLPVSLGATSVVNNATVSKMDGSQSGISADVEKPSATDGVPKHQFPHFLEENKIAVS
Experiment: TBD: TBD

SMILES	IC50
COC(=O)c1cccc(Nc2c(-c3c(O)ccc4ccccc34)nc3cnccn23)c1	0.623 µM
CC(C)(C)Nc1c(-c2c(O)ccc3ccccc23)nc2cnccn12	0.783 µM
Oc1ccc2ccccc2c1-c1nc2cnccn2c1NC1CCCCC1	0.616 µM
Oc1ccc2ccccc2c1-c1nc2cnccn2c1NCc1ccccc1	0.594 µM
CC(C)(C)Nc1c(-c2c(O)ccc3ccccc23)nc2ccccn12	0.162 µM
Oc1ccc2ccccc2c1-c1nc2ccccn2c1NC1CCCCC1	2.77 µM
COc1ccc(Nc2c(-c3c(O)ccc4ccccc34)nc3cnccn23)cc1	0.619 µM
Oc1ccc2ccccc2c1-c1nc2ccccn2c1NCCN1CCOCC1	2.23 µM
COCCNc1c(-c2c(O)ccc3ccccc23)nc2cnccn12	0.434 µM
Oc1ccc2ccccc2c1-c1nc2cnccn2c1NC1CC1	0.335 µM
N#Cc1ccc(Nc2c(-c3c(O)ccc4ccccc34)nc3cnccn23)cc1	0.498 µM
COc1cccc(CNc2c(-c3c(O)ccc4ccccc34)nc3cnccn23)c1	0.288 µM
COc1ccc(CCNc2c(-c3c(O)ccc4ccccc34)nc3cnccn23)cc1OC	2.49 µM
Oc1ccc2ccccc2c1-c1nc2ccccn2c1NC1CC1	0.109 µM
Oc1ccc2ccccc2c1-c1nc2ccccn2c1NCc1ccccc1	1.51 µM
Oc1ccc2ccccc2c1-c1nc2cnccn2c1NCCN1CCOCC1	1.36 µM
